In patent EP4818168A1, “FUSED RING COMPOUND, PHARMACEUTICAL COMPOSITION THEREOF AND USE THEREOF” (priority 2023, dated 2025):

Target: T1, AURKA (Homo sapiens, UniProt O14965)
T1 construct: endogenous in cells; host or cells: Jurkat cells
T1 sequence (O14965 1-403): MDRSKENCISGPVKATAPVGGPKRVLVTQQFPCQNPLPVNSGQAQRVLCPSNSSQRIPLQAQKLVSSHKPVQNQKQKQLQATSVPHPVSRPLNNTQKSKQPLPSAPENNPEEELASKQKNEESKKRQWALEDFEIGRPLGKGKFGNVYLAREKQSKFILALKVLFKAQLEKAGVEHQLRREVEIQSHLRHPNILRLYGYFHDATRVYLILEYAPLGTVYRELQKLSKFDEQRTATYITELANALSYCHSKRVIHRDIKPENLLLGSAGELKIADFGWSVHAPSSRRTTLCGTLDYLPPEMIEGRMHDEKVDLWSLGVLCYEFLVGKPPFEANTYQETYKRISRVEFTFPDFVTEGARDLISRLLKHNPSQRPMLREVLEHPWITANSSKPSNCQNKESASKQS
Test: not given
Format: cell-based
Conditions: not given
In short: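 Jurkat cells seeded at 1×10^6 cells/500 µL and treated with compound; lysates run on SDS-PAGE, blotted to nitrocellulose and probed overnight at 4°C for AURKA. Chemiluminescent or fluorescent band intensity fitted to a curve to give DC50 for protein degradation.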

Row | SMILES | Percentage of AURKA Degradation Induced by 100 nM Compound in Jurkat Cells | Percentage of AURKA Degradation Induced by 1 µM Compound in Jurkat Cells
1 | COc1cc(Nc2ncc3c(n2)-c2ccc(Cl)cc2C(c2c(F)cccc2OC)=NC3)ccc1C(=O)NCCN1CCN(c2ccc(C3CCC(=O)NC3=O)cc2)CC1 (stereo not drawn) [Compound A47] | ++ (key: +: Degradation ≤ 30%; ++: 30% < Degradation ≤ 70%; +++: Degradation > 70%) | + (key: +: Degradation ≤ 30%; ++: 30% < Degradation ≤ 70%; +++: Degradation > 70%)
2 | COc1cc(Nc2ncc3c(n2)-c2ccc(Cl)cc2C(c2c(F)cccc2OC)=NC3)ccc1C(=O)N[C@H]1C[C@H](C#Cc2cccc3c2CN(C2CCC(=O)NC2=O)C3=O)C1 (relative stereo) [Compound A7] | ++ (key: +: Degradation ≤ 30%; ++: 30% < Degradation ≤ 70%; +++: Degradation > 70%) | ++ (key: +: Degradation ≤ 30%; ++: 30% < Degradation ≤ 70%; +++: Degradation > 70%)
3 | COc1cccc(F)c1C1=NCc2cnc(Nc3ccc(C(=O)NC45CC(C#Cc6cccc(N7CCC(=O)NC7=O)c6)(C4)C5)cc3)nc2-c2ccc(Cl)cc21 [Compound A77] | ++ (key: +: Degradation ≤ 30%; ++: 30% < Degradation ≤ 70%; +++: Degradation > 70%) | ++ (key: +: Degradation ≤ 30%; ++: 30% < Degradation ≤ 70%; +++: Degradation > 70%)
4 | O=C1CCC(N2CCN(C3CN(CCNC(=O)c4ccc(Nc5ncc6c(n5)-c5ccc(Cl)cc5C(c5c(F)cccc5F)=NC6)cc4)C3)CC2=O)C(=O)N1 (stereo not drawn) [Compound A75] | ++ (key: +: Degradation ≤ 30%; ++: 30% < Degradation ≤ 70%; +++: Degradation > 70%) | ++ (key: +: Degradation ≤ 30%; ++: 30% < Degradation ≤ 70%; +++: Degradation > 70%)

Same assay, conditions: 100 nM compound, Jurkat cells, 24 h, Table 1

Row | SMILES | Percentage of AURKA Degradation Induced by 100 nM Compound in Jurkat Cells
5 | COc1cc(Nc2ncc3c(n2)-c2ccc(Cl)cc2C(c2c(F)cccc2OC)=NC3)ccc1C(=O)NCCOCCNc1ccn2c(N3CCC(=O)NC3=O)cnc2c1 [Compound A32] | + (Degradation ≤ 30%)
6 | COc1cccc(F)c1C1=NCc2cnc(Nc3ccc(C(=O)NC4CC5(C4)CN(c4cccc(N6CCC(=O)NC6=O)c4)C5)cc3)nc2-c2ccc(Cl)cc21 [Compound A63] | ++ (30% < Degradation ≤ 70%)
7 | O=C1CCN(c2ccc(N3CC4(CCC(NC(=O)c5ccc(Nc6ncc7c(n6)-c6ccc(Cl)cc6C(c6c(F)cccc6F)=NC7)cc5)CC4)C3)nc2)C(=O)N1 [Compound A61] | +++ (Degradation > 70%)
8 | COc1cc(Nc2ncc3c(n2)-c2ccc(Cl)cc2C(c2c(F)cccc2OC)=NC3)ccc1C(=O)NCCN1CCN(c2ccc(N3CCC(=O)NC3=O)cc2)CC1 [Compound A8] | +++ (Degradation > 70%)
9 | COc1cc(Nc2ncc3c(n2)-c2ccc(Cl)cc2C(c2c(F)cccc2OC)=NC3)ccc1C(=O)NCCN1CCN(c2cccn3c(N4CCC(=O)NC4=O)cnc23)CC1 [Compound A21] | +++ (Degradation > 70%)
10 | O=C1CCN(c2ccc(N3CC4(CC(NC(=O)c5ccc(Nc6ncc7c(n6)-c6ccc(Cl)cc6C(c6c(F)cccc6F)=NC7)cc5)C4)C3)cc2)C(=O)N1 [Compound A59] | ++ (30% < Degradation ≤ 70%)
11 | COc1cc(Nc2ncc3c(n2)-c2ccc(Cl)cc2C(c2c(F)cccc2OC)=NC3)ccc1C(=O)N1CCC2(C1)CN(c1ccc(N3CCC(=O)NC3=O)cc1)C2 [Compound A44] | + (Degradation ≤ 30%)

Same assay, conditions: 1 µM compound, Jurkat cells, 24 h, Table 1

Row | SMILES | Percentage of AURKA Degradation Induced by 1 µM Compound in Jurkat Cells
12 | COc1cc(Nc2ncc3c(n2)-c2ccc(Cl)cc2C(c2c(F)cccc2OC)=NC3)ccc1C(=O)NCCOCCNc1ccn2c(N3CCC(=O)NC3=O)cnc2c1 [Compound A32] | + (Degradation ≤ 30%)
13 | COc1cccc(F)c1C1=NCc2cnc(Nc3ccc(C(=O)NC4CC5(C4)CN(c4cccc(N6CCC(=O)NC6=O)c4)C5)cc3)nc2-c2ccc(Cl)cc21 [Compound A63] | ++ (30% < Degradation ≤ 70%)
14 | O=C1CCN(c2ccc(N3CC4(CCC(NC(=O)c5ccc(Nc6ncc7c(n6)-c6ccc(Cl)cc6C(c6c(F)cccc6F)=NC7)cc5)CC4)C3)nc2)C(=O)N1 [Compound A61] | +++ (Degradation > 70%)
15 | COc1cc(Nc2ncc3c(n2)-c2ccc(Cl)cc2C(c2c(F)cccc2OC)=NC3)ccc1C(=O)NCCN1CCN(c2ccc(N3CCC(=O)NC3=O)cc2)CC1 [Compound A8] | +++ (Degradation > 70%)
16 | COc1cc(Nc2ncc3c(n2)-c2ccc(Cl)cc2C(c2c(F)cccc2OC)=NC3)ccc1C(=O)NCCN1CCN(c2cccn3c(N4CCC(=O)NC4=O)cnc23)CC1 [Compound A21] | +++ (Degradation > 70%)
17 | O=C1CCN(c2ccc(N3CC4(CC(NC(=O)c5ccc(Nc6ncc7c(n6)-c6ccc(Cl)cc6C(c6c(F)cccc6F)=NC7)cc5)C4)C3)cc2)C(=O)N1 [Compound A59] | +++ (Degradation > 70%)
18 | COc1cc(Nc2ncc3c(n2)-c2ccc(Cl)cc2C(c2c(F)cccc2OC)=NC3)ccc1C(=O)N1CCC2(C1)CN(c1ccc(N3CCC(=O)NC3=O)cc1)C2 [Compound A44] | + (Degradation ≤ 30%)

System: HCC1806 cells
Test: CTG assay of compound inhibition on cell viability (HCC1806 cells)
Format: cell-based
Conditions: Homo sapiens, 144 h; HCC1806 cells, 6 days, CellTiter-Glo; read-out: IC50 in HCC1806 Cells
Description: CellTiter-Glo (CTG) is a rapid cell viability test method based on ATP detection. […] Adenosine triphosphate (ATP) participates in various enzymatic reactions in organisms and is an indicator of living cell metabolism. Its content directly reflects the number of living cells and cell status. During the experiment, equal volume of CTG reagent is added to the cultured cells to measure the luminescence value. The chemiluminescent signal value is proportional to the amount of ATP, thus reflecting the number of viable cells. Therefore, cell viability can be obtained by detecting the ATP content. Compounds that affect cell viability will inhibit cell viability in a concentration-dependent manner, allowing a curve to be fitted to obtain the IC50 value.
The experimental procedure is as follows: • 11. Place the cell suspension in a 15 mL centrifuge tube, centrifuge at 1000 rpm for 5 min at room temperature, discard the supernatant, and collect the cell pellet. • 12. Resuspend the cell pellet with preheated complete cell culture medium (RPMI1640+10%FBS+1%PS), and use a Countess® automated cell counter to detect cell viability and density. The cell viability must be above 90%. • 13. […] Transfer the compound solution to a 96-well plate seeded with cells (final concentration of DMSO 0.1%), and place in a cell incubator at 37°C, 5% CO2 for 6 days. • 15. […] Protect from light during the whole process. Perform optical signal readings using a SpectraMax i3x reader. • 16. Data analysis: Remaining activity (%) = 100% * (1 - ((LumDMSO - Lummedium) - Lumsample) / (LumDMSO - LumPBS/medium)). Use GraphPad Prism 9.0 software to draw an S-shaped dose-survival rate curve and calculate the IC50 value using a nonlinear regression model.

Row | SMILES | IC50 [nM]
19 | COc1cc(Nc2ncc3c(n2)-c2ccc(Cl)cc2C(c2c(F)cccc2OC)=NC3)ccc1C(=O)NCCN1CCN(c2ccc(N3CCC(=O)NC3=O)cc2)CC1 [Compound A8] | < 1000

Same assay, conditions: Homo sapiens, HCC1806, 144 h, read-out: IC50 in HCC1806 Cells

Row | SMILES | IC50 [nM]
20 | COc1cc(Nc2ncc3c(n2)-c2ccc(Cl)cc2C(c2c(F)cccc2OC)=NC3)ccc1C(=O)NCCOCCNc1ccn2c(N3CCC(=O)NC3=O)cnc2c1 [Compound A32] | > 10000
21 | COc1cccc(F)c1C1=NCc2cnc(Nc3ccc(C(=O)NC4CC5(C4)CN(c4cccc(N6CCC(=O)NC6=O)c4)C5)cc3)nc2-c2ccc(Cl)cc21 [Compound A63] | < 1000
22 | O=C1CCN(c2ccc(N3CC4(CCC(NC(=O)c5ccc(Nc6ncc7c(n6)-c6ccc(Cl)cc6C(c6c(F)cccc6F)=NC7)cc5)CC4)C3)nc2)C(=O)N1 [Compound A61] | < 1000
23 | COc1cc(Nc2ncc3c(n2)-c2ccc(Cl)cc2C(c2c(F)cccc2OC)=NC3)ccc1C(=O)NCCN1CCN(c2cccn3c(N4CCC(=O)NC4=O)cnc23)CC1 [Compound A21] | < 1000
24 | O=C1CCN(c2ccc(N3CC4(CC(NC(=O)c5ccc(Nc6ncc7c(n6)-c6ccc(Cl)cc6C(c6c(F)cccc6F)=NC7)cc5)C4)C3)cc2)C(=O)N1 [Compound A59] | < 1000
25 | COc1cc(Nc2ncc3c(n2)-c2ccc(Cl)cc2C(c2c(F)cccc2OC)=NC3)ccc1C(=O)N1CCC2(C1)CN(c1ccc(N3CCC(=O)NC3=O)cc1)C2 [Compound A44] | < 1000
26 | COc1cc(Nc2ncc3c(n2)-c2ccc(Cl)cc2C(c2c(F)cccc2OC)=NC3)ccc1C(=O)NCCN1CCN(c2ccc(C3CCC(=O)NC3=O)cc2)CC1 (stereo not drawn) [Compound A47] | < 1000
27 | COc1cc(Nc2ncc3c(n2)-c2ccc(Cl)cc2C(c2c(F)cccc2OC)=NC3)ccc1C(=O)N[C@H]1C[C@H](C#Cc2cccc3c2CN(C2CCC(=O)NC2=O)C3=O)C1 (relative stereo) [Compound A7] | 1000 to 10000
28 | COc1cccc(F)c1C1=NCc2cnc(Nc3ccc(C(=O)NC45CC(C#Cc6cccc(N7CCC(=O)NC7=O)c6)(C4)C5)cc3)nc2-c2ccc(Cl)cc21 [Compound A77] | 1000 to 10000
29 | O=C1CCC(N2CCN(C3CN(CCNC(=O)c4ccc(Nc5ncc6c(n5)-c5ccc(Cl)cc5C(c5c(F)cccc5F)=NC6)cc4)C3)CC2=O)C(=O)N1 (stereo not drawn) [Compound A75] | 1000 to 10000
